From US6737383B1, “Herbicidal oxadiazolidines” (priority 1999, dated 2004)

How the values were obtained:
surinam grass = test: Test D surinam grass; type: in vivo, Brachiaria decumbens; details: Postemergence, 0 to 100 scale
sandbur = test: Test D sandbur; type: in vivo, Cenchrus echinatus; details: Postemergence, 0 to 100 scale
Alexandergrass = test: Test D Alexandergrass; type: in vivo, Brachiaria plantaginea; details: Postemergence, 0 to 100 scale
Johnson grass = test: Test D Johnson grass; type: in vivo, Sorghum halepense; details: Postemergence, 0 to 100 scale
large crabgrass = test: Test D large crabgrass; type: in vivo, Digitaria sanguinalis; details: Postemergence, 0 to 100 scale
guineagrass = test: Test D guineagrass; type: in vivo, Panicum maximum; details: Postemergence, 0 to 100 scale
common ragweed = test: Test D common ragweed; type: in vivo, Ambrosia elatior; details: Postemergence, 0 to 100 scale
bermuda-grass = test: Test D bermudagrass; type: in vivo, Cynodon dactylon; details: Postemergence, 0 to 100 scale
Green foxtail [1] = test: Test D green foxtail; type: in vivo; details: Rate 250 g/ha; Postemergence; 0 to 100 scale
common pursiane = test: Test D common purslane; type: in vivo, Portulaca oleracea; details: Postemergence, 0 to 100 scale
Green foxtail [2] = test: Test D green foxtail; type: in vivo; details: Postemergence, 0 to 100 scale, 0 no injury, 100 complete control
[3] = Rate 16 g/ha, 0 no injury, 100 complete control
[4] = Rate 32 g/ha, 0 no injury, 100 complete control
[5] = Rate 64 g/ha, 0 no injury, 100 complete control
[6] = Rate 125 g/ha, 0 no injury, 100 complete control

CC(C)N(C(=O)n1oc(=O)n(C2CC2)c1=O)c1ccccc1 [Compound 243]
Plant response rating, Surinam grass (surinam grass; [3]): 0
Plant response rating, Surinam grass (surinam grass; [4]): 20
Surinam grass plant response rating (surinam grass; [5]): 90
Surinam grass plant response rating (surinam grass; [6]): 100
Plant response rating, Surinam grass (surinam grass; Rate 250 g/ha): 100
Plant response rating, Sandbur (sandbur; [3]): 10
Plant response rating, Sandbur (sandbur; [4]): 20
Sandbur plant response rating (sandbur; [5]): 30
Sandbur plant response rating (sandbur; [6]): 30
Plant response rating, Sandbur (sandbur; Rate 250 g/ha): 100
Plant response rating, Alexandergrass (Alexandergrass; [3]): 0
Plant response rating, Alexandergrass (Alexandergrass; [4]): 0
Plant response rating, Alexandergrass (Alexandergrass; [5]): 20
Plant response rating, Alexandergrass (Alexandergrass; [6]): 100
Plant response rating, Alexandergrass (Alexandergrass; Rate 250 g/ha): 100
Plant response rating Johnsongrass (Johnson grass; [3]): 0
Plant response rating Johnsongrass (Johnson grass; [4]): 0
Plant response rating Johnsongrass (Johnson grass; [5]): 0
Plant response rating Johnsongrass (Johnson grass; [6]): 30
Plant response rating Johnsongrass (Johnson grass; Rate 250 g/ha): 100
Plant response rating Large crabgrass (large crabgrass; [3]): 0
Plant response rating Large crabgrass (large crabgrass; [4]): 70
Plant response rating Large crabgrass (large crabgrass; [5]): 100
Plant response rating Large crabgrass (large crabgrass; [6]): 100
Plant response rating Large crabgrass (large crabgrass; Rate 250 g/ha): 100
Plant response rating, Guineagrass (guineagrass; [3]): 0
Plant response rating, Guineagrass (guineagrass; [4]): 0
Guineagrass plant response rating (guineagrass; [5]): 0
Plant response rating, Guineagrass (guineagrass; [5]): 20
Plant response rating, Guineagrass (guineagrass; [6]): 100
Plant response rating, Guineagrass (guineagrass; Rate 250 g/ha): 100
Plant response rating, C. ragweed (common ragweed; [3]): 0
Plant response rating, C. ragweed (common ragweed; [4]): 0
Plant response rating, C. ragweed (common ragweed; [5]): 10
Plant response rating, C. ragweed (common ragweed; [6]): 10
Plant response rating, C. ragweed (common ragweed; Rate 250 g/ha): 60
Plant response rating, Bermudagrass (bermuda-grass; [3]): 20
Plant response rating, Bermudagrass (bermuda-grass; [4]): 60
Plant response rating, Bermudagrass (bermuda-grass; [5]): 100
Plant response rating, Bermudagrass (bermuda-grass; [6]): 100
Plant response rating, Bermudagrass (bermuda-grass; Rate 250 g/ha): 100
Plant response rating, Green foxtail (Green foxtail [1]): 100
Plant response rating, C. purslane (common pursiane; [3]): 0
Plant response rating, C. purslane (common pursiane; [4]): 0
Plant response rating, C. purslane (common pursiane; [5]): 0
Plant response rating, C. purslane (common pursiane; [6]): 0
Plant response rating, C. purslane (common pursiane; Rate 250 g/ha): 0
Plant response rating, Green foxtail (Green foxtail [2]; Rate 16 g/ha): 10
Plant response rating, Green foxtail (Green foxtail [2]; Rate 32 g/ha): 100

CC(C)N(C(=O)n1oc(=O)n(C2(C)CC2)c1=O)c1ccccc1 [Compound 360]
Plant response rating, Surinam grass (surinam grass; [3]): 0
Plant response rating, Surinam grass (surinam grass; [4]): 0
Surinam grass plant response rating (surinam grass; [5]): 100
Surinam grass plant response rating (surinam grass; [6]): 90
Plant response rating, Surinam grass (surinam grass; Rate 250 g/ha): 100
Plant response rating, Sandbur (sandbur; [3]): 0
Plant response rating, Sandbur (sandbur; [4]): 90
Sandbur plant response rating (sandbur; [5]): 50
Sandbur plant response rating (sandbur; [6]): 100
Plant response rating, Sandbur (sandbur; Rate 250 g/ha): 100
Plant response rating, Alexandergrass (Alexandergrass; [3]): 20
Plant response rating, Alexandergrass (Alexandergrass; [4]): 60
Plant response rating, Alexandergrass (Alexandergrass; [5]): 50
Plant response rating, Alexandergrass (Alexandergrass; [6]): 100
Plant response rating, Alexandergrass (Alexandergrass; Rate 250 g/ha): 100
Plant response rating Johnsongrass (Johnson grass; [3]): 0
Plant response rating Johnsongrass (Johnson grass; [4]): 0
Plant response rating Johnsongrass (Johnson grass; [5]): 0
Plant response rating Johnsongrass (Johnson grass; [6]): 50
Plant response rating Johnsongrass (Johnson grass; Rate 250 g/ha): 70
Plant response rating Large crabgrass (large crabgrass; [3]): 0
Plant response rating Large crabgrass (large crabgrass; [4]): 80
Plant response rating Large crabgrass (large crabgrass; [5]): 100
Plant response rating Large crabgrass (large crabgrass; [6]): 100
Plant response rating Large crabgrass (large crabgrass; Rate 250 g/ha): 100
Plant response rating, Guineagrass (guineagrass; [3]): 0
Plant response rating, Guineagrass (guineagrass; [4]): 100
Guineagrass plant response rating (guineagrass; [5]): 100
Plant response rating, Guineagrass (guineagrass; [6]): 100
Plant response rating, Guineagrass (guineagrass; Rate 250 g/ha): 100
Plant response rating, C. ragweed (common ragweed; [3]): 0
Plant response rating, C. ragweed (common ragweed; [4]): 0
C. ragweed plant response rating (common ragweed; [5]): 30
Plant response rating, C. ragweed (common ragweed; [6]): 30
Plant response rating, C. ragweed (common ragweed; Rate 250 g/ha): 30
Plant response rating, Bermudagrass (bermuda-grass; [3]): 0
Plant response rating, Bermudagrass (bermuda-grass; [4]): 100
Plant response rating, Bermudagrass (bermuda-grass; [5]): 100
Plant response rating, Bermudagrass (bermuda-grass; [6]): 100
Plant response rating, Bermudagrass (bermuda-grass; Rate 250 g/ha): 100
Plant response rating, Green foxtail (Green foxtail [1]): 100
Plant response rating, C. purslane (common pursiane; [3]): 0
Plant response rating, C. purslane (common pursiane; [4]): 0
Plant response rating, C. purslane (common pursiane; [5]): 0
Plant response rating, C. purslane (common pursiane; [6]): 0
Plant response rating, C. purslane (common pursiane; Rate 250 g/ha): 0
Plant response rating, Green foxtail (Green foxtail [2]; Rate 16 g/ha): 0
Plant response rating, Green foxtail (Green foxtail [2]; Rate 32 g/ha): 70
